Measured values from patent publication US10670605B2, “Cysteine reactive probes and uses thereof” (The Scripps Research Institute, priority 2015, dated 2020).
Counter-ions that a name gives are not always drawn. Blank lines part the entries; values can stand above or below the compound they belong to.

What was measured:
[1] = biological target: T1, USP48 C39 (Q86UV5) (Homo sapiens, UniProt Q86UV5); assay: Competitive isoTOP-ABPP in situ; assay type: cell-based; conditions: fragment 2 at 200 μM, MDA-MB-231 cells
T1 sequence (Q86UV5 1-1035): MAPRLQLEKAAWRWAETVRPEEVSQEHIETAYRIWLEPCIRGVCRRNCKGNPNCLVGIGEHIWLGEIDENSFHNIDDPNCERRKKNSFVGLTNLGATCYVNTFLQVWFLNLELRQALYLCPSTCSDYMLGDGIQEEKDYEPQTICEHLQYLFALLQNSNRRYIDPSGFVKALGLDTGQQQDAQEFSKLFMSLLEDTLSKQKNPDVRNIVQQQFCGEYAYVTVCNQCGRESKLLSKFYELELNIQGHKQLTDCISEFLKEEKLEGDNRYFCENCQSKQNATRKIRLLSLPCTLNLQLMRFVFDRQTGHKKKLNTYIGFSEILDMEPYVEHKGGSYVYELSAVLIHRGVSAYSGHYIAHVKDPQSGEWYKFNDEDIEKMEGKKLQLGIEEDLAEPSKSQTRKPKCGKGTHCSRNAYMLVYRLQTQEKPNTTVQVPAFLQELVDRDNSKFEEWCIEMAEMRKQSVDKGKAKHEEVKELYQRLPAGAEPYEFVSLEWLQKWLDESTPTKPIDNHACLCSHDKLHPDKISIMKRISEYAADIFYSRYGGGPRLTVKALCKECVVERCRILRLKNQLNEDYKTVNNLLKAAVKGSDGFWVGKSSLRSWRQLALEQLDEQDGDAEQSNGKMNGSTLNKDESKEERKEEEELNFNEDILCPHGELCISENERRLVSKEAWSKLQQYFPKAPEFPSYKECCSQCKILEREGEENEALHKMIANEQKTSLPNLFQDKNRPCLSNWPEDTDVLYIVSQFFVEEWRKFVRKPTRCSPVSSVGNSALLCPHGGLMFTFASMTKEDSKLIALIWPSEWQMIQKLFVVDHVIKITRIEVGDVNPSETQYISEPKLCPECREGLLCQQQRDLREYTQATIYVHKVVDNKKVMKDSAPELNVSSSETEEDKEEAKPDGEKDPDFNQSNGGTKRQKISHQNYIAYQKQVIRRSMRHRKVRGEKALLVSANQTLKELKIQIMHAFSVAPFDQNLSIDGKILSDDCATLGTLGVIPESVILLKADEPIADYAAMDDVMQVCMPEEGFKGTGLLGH

[2] = biological target: MKI67 C903 (P46013) (Homo sapiens, UniProt P46013); assay: Competitive isoTOP-ABPP in situ; assay type: cell-based; conditions: fragment 2 at 200 μM, MDA-MB-231 cells
[3] = test system: cysteines in MDA-MB-231 and Ramos cell proteomes; assay: Competitive isoTOP-ABPP in cell lysates (in vitro): proteomic reactivity / liganded cysteine rate; assay type: binding, human; conditions: fragment 500 μM; % of quantified cysteines with R ≥4
Method: All cell lines were obtained from ATCC, were used with a low passage number and were grown at 37° C. with 5% CO2. MDA-MB-231 cells and HEK-293T cells were grown in DMEM supplemented with 10% fetal bovine serum, penicillin, streptomycin and glutamine. Jurkat, Ramos and MUM2C cells were grown in RPMI-1640 medium supplemented with 10% fetal bovine serum, penicillin and streptomycin. For in vitro labeling, cells were grown to 100% confluence for MDA-MB-231 cells or until cell density reached 1.5 million cells/mL for Ramos and Jurkat cells. […] Cell pellets were lysed by sonication and fractionated (100,000 g, 45 min) to yield soluble and membrane fractions, which were then adjusted to a final protein concentration of 1.5 mg/mL for proteomics experiments and 1 mg/mL for gel-based ABPP experiments. The soluble lysate was prepared fresh from frozen pellets directly before each experiment. Protein concentration was determined using the Bio-Rad DC™ protein assay kit.
For each sample, 100 μL of streptavidin-agarose beads slurry (Pierce) was washed in 10 mL PBS and then resuspended in 5 mL PBS. The SDS-solubilized proteins were added to the suspension of streptavidin-agarose beads and the bead mixture was rotated for 3 h at ambient temperature. After incubation, the beads were pelleted by centrifugation (1,400 g, 3 min) and were washed (2×10 mL PBS and 2×10 mL water).
The beads were transferred to eppendorf tubes with 1 mL PBS, centrifuged (1,400 g, 3 min), and resuspended in PBS containing 6 M urea (500 μL). To this was added 10 mM DTT (25 μL of a 200 mM stock in water) and the beads were incubated at 65° C. for 15 mins. 20 mM iodoacetamide (25 μL of a 400 mM stock in water) was then added and allowed to react at 37° C. for 30 mins with shaking. The bead mixture was diluted with 900 μL PBS, pelleted by centrifugation (1,400 g, 3 min), and resuspended in 200 μL PBS. To this was added 1 mM CaCl2 ([…]) and trypsin (2 μg, Promega, sequencing grade) and the digestion was allowed to proceed overnight at 37° C. with shaking. The beads were separated from the digest with Micro Bio-Spin columns (Bio-Rad) by centrifugation (1,000 g, 1 min), washed (2×1 mL PBS and 2×1 mL water) and then transferred to fresh eppendorfs with 1 mL water. The washed beads were washed once further in 140 μL TEV buffer (50 mM Tris, pH 8, 0.5 mM EDTA, 1 mM DTT) and then resuspended in 140 μL TEV buffer. 5 μL TEV protease (80 μM) was added and the reactions were rotated overnight at 29° C. The TEV digest was separated from the beads with Micro Bio-Spin columns by centrifugation (1,400 g, 3 min) and the beads were washed once with water (100 μL). The samples were then acidified to a final concentration of 5% (v/v) formic acid and stored at −80° C. prior to analysis.

[4] = test system: intracellular GSH in primary human T cells; assay: Quantification of cellular glutathione (GSH) levels; assay type: cell-based; conditions: DMF 50 μM 2 h; BSO 2.5 mM 4 h
Method: Primary human T cells (2.5 million cells/mL, 20 mL per condition) were treated as indicated, harvested by centrifugation (500 g, 8 min, 4° C.), and washed twice with PBS. To the cell pellet was added 75 μL of lysis buffer. […] Protein concentrations were adjusted to at least 5 mg/mL and the assay performed according to manufacturer's instructions (Sigma-Aldrich, CS 1020). Data represent mean±SE for two biological replicates.

Chain of MKI67 C903 (P46013) (P46013 whole entry, the tested form may be a part): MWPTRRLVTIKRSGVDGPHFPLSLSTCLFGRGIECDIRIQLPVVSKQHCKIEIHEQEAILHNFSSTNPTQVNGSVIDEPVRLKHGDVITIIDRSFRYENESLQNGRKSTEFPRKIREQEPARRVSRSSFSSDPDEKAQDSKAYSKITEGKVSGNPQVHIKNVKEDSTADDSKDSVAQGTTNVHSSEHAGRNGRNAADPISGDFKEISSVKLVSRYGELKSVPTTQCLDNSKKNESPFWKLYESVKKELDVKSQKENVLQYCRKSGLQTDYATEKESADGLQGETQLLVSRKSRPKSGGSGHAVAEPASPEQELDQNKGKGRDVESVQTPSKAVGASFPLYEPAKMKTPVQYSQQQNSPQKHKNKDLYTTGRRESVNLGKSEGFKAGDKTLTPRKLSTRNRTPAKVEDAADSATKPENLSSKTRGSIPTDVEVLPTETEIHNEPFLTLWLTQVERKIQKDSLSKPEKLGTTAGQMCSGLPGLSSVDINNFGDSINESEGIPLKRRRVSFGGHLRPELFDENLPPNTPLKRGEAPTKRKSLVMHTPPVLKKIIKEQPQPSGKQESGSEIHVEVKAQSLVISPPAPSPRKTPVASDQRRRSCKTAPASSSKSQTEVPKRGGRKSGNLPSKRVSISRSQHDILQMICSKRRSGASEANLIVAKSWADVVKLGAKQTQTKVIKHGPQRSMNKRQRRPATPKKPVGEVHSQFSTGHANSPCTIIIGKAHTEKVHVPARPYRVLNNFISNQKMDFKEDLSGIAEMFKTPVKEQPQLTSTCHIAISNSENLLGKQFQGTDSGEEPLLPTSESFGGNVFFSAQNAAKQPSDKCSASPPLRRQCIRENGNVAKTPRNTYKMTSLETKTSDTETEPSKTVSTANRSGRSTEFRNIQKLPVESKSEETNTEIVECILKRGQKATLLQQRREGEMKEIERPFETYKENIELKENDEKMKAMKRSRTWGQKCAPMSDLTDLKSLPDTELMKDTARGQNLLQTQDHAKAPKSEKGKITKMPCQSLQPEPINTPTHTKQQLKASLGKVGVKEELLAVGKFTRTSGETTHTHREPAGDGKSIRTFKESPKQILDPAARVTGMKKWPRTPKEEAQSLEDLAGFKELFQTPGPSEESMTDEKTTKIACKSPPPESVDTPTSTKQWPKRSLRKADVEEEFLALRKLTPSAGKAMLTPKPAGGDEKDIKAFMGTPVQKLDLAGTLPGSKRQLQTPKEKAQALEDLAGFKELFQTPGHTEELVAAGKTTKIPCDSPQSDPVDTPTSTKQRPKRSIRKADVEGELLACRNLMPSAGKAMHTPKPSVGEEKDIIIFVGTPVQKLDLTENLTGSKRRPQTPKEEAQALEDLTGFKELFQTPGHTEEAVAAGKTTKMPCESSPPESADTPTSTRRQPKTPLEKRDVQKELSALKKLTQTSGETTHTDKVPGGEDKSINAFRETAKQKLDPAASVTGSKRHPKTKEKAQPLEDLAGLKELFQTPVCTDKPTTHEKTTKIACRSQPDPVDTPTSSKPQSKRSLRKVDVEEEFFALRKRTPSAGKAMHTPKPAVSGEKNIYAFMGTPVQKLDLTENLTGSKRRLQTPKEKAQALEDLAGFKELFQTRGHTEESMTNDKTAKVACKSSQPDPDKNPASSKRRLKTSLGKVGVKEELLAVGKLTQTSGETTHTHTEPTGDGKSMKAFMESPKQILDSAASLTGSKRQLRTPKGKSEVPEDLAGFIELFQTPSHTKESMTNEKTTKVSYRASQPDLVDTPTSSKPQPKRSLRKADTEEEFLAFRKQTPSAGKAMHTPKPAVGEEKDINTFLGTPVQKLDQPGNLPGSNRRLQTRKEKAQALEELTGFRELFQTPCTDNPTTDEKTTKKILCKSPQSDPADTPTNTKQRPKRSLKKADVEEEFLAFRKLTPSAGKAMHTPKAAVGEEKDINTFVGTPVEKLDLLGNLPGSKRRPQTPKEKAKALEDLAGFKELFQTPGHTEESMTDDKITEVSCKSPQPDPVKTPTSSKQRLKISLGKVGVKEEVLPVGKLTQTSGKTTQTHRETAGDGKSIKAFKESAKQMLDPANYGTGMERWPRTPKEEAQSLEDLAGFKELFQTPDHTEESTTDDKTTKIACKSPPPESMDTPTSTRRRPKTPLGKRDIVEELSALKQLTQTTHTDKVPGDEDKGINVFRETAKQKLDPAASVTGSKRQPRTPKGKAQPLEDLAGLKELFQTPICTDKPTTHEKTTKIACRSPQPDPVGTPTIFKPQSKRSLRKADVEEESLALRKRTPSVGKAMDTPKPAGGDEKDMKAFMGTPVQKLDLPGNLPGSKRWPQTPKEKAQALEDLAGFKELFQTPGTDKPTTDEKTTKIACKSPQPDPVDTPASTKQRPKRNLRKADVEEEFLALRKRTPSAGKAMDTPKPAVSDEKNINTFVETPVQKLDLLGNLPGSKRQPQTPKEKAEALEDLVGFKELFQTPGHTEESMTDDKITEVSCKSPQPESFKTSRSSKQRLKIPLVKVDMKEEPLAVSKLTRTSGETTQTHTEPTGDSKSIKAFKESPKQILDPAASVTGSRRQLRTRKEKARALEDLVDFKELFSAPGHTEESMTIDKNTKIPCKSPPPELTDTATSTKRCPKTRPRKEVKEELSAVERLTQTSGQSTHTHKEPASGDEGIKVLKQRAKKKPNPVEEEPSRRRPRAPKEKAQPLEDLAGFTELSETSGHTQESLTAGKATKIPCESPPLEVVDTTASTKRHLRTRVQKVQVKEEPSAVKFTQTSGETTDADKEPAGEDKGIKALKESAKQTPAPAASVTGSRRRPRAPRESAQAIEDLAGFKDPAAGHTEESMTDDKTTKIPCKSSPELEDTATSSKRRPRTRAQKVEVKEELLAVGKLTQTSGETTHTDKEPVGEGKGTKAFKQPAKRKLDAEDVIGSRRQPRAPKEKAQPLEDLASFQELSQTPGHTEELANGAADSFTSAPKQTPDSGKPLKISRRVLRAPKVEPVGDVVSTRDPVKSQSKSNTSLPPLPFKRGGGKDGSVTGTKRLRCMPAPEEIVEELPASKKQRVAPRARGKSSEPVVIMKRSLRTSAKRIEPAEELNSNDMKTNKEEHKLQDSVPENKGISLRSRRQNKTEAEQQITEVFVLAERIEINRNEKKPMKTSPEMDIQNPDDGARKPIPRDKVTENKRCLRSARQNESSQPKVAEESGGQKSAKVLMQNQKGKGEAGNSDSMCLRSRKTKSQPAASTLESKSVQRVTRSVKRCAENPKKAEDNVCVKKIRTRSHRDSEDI

isoTOP-ABPP reactivity profile (ratio) 2_200 μM_in-situ_231 [1]: 20.0
isoTOP-ABPP reactivity profile (ratio) 2_200 μM_in-situ_231 [2]: 20.0
Compound: COc1ccc2c(c1)CCCN2C(=O)CCl [compound 2]

Compound: O=C(CCl)Nc1cc(C(F)(F)F)cc(C(F)(F)F)c1 [compound 3]
proteomic reactivity value (liganded cysteine rate) [3]: 15%

Compound: COC(=O)/C=C/C(=O)OC [DMF, dimethyl fumarate]
cellular GSH content [4]: significant decrease
